We go through one compound from patent US20260297031A1, “HYDROXYLAMINE-BASED BCR-ABL1 INHIBITORS FOR TREATMENT OF CANCER” (University of Georgia Research Foundation, Inc., priority 2023, published 2026).

By Papp A→B is commonly meant how fast a substance crosses the layer from the apical side. One may read the half-life as how long it takes for the measured level to halve.

The nature of series [1]: Plasma protein binding by equilibrium dialysis, rat plasma. The class given is in vitro ADME. As to conditions: plasma, 5 μM, read-out: fu, plasma %. The method, then: Plasma Protein Binding by Equilibrium Dialysis (Independently Performed by Pharmaron Inc., Ninqbo, CN)
Initially, 1 mM solutions of test compounds and the control compound (Ketoconzaole) were prepared in DMSO. After this, dialysis membranes were soaked in ultrapure water for 60 min to separate strips, followed by 20% aq. ethanol for 20 min, and finally in a dialysis buffer for 20 min. […] After this, 597 μL of blank plasma solution followed by 3 μL of the working solutions of either test compounds or control compound were added to a new plastic plate or separate plastic tube and the solutions were vortexed at 1,000 rpm for 2 min. Immediately after this, 50 μL of spiked plasma solution suspension was transferred to a 96-well plate to act as T=0 control. The remaining samples were treated in the same manner, whereby all remaining spiked plasma solutions were added to the incubator for the duration of the study.
Cells were then loaded with 120 μL of the plasma samples and dialyzed against an equal volume of dialysis buffer (PBS). […] At the end of incubation, the lid was removed and 50 μL of post-dialysis samples were removed from both buffer and plasma solution chambers into a separate 96-well plate for analysis. The plasma solutions (50 μL) were then added to the buffer samples along with an equal volume of PBS (50 μL) to the collected plasma solution samples. The plate was shaken at 1,000 rpm for 2 min and 400 μL of acetonitrile containing an appropriate internal standard was added to precipitate protein and release compound. The samples were then vortexed at 1,000 rpm for an additional 10 min followed by centrifugation at 3,220 g for 30 min. […] The samples were analyzed by LC-MS/MS and 100 μL of distilled water was added to each sample prior to analysis.
Concentrations of test compounds and control compound in buffer and plasma solution chambers was determined and percentages of test compounds and control compound bound using the following equations (mean of n=2 replicates): […]

A short description of a further series: Caco-2 permeability. The following applies: human. How it is done:
Caco-2 Permeability (Independently Performed by Pharmaron Inc., Ningbo, CN)
To each well of the Transwell insert and reservoir were added 50 μL and 25 mL of cell culture medium, respectively. […] Following this, the Caco-2 plate was removed from the incubator and the monolayer washed twice with pre-warmed HBSS (10 mM HEPES, pH 7.4).
To determine the rate of drug transport in the apical to basolateral direction, 125 μL of the working solution of either test compounds or control compounds was added to the Transwell insert (apical compartment) and a 50 μL sample was immediately transported from the apical compartment to 200 μL of acetonitrile containing internal standard (100 nM alprazolam, 200 nM Caffeine and 100 nM tolbutamide) in a new 96-well plate as the initial donor sample (A-B). The sample was then vortexed at 1,000 rpm for 10 min. The receiver plate (basolateral compartment) wells were then filled with 235 μL of transport buffer. To determine the rate of drug transport in the basolateral to apical direction, 285 μL of the working solution of either test compounds or control compounds was added to the receiver plate wells (basolateral compartment) and a 50 μL sample was immediately transferred from the basolateral compartment to 200 μL of acetonitrile containing internal standard in a new 96-well plate as the initial donor sample (B-A). The sample was vortexed at 1,000 rpm for 10 min. The Transwell insert (apical compartment) was then filled with 75 μL of transport buffer and the apical to basolateral direction and the basolateral to apical direction were done at the same time. […] After incubation, 50 μL samples from donor sides (apical compartment for Ap→BI flux, and basolateral compartment for BI→Ap) and receiver sides (basolateral compartment for Ap→BI flux, and apical compartment for BI→Ap) were transferred to wells of a new 96-well plate, followed by the addition of 200 μL acetonitrile containing internal standard. All samples were vortexed for 10 min and then centrifuged at 3,220 g for 40 min. A 150 μL aliquot of the supernatant was then mixed with an appropriate volume of ultra-pure water prior to LC-MS/MS analysis.
To monitor for monolayer integrity, Lucifer yellow leakage was determined after the 2 h transport period. This began by preparing a stock solution of Lucifer yellow in DMSO which was diluted with HBSS (10 mM HEPES, pH 7.4.) to reach a final concentration of 100 μM. To each Transwell insert (apical compartment) was then added 100 μL of the Lucifer yellow solution, followed by filling the wells in the receiver plate (basolateral compartment) with 300 μL of HBSS (10 mM HEPES, pH 7.4).
The efflux ratio was determined using the following equation: […]
(Caco-2 cells form a polarised layer with tight junctions and transporters.)

Series [2] in a line: Metabolic stability in human liver microsomes. It is filed as in vitro ADME. As to conditions: human liver microsomes. How it is done:
Metabolic Stability in Liver Microsomes (Independently Performed by Pharmaron Inc., Ninqbo, CN)
This experiment was carried out under two separate set of conditions: i) with Cofactors (NADPH), which consisted of adding 25 μL of 10 mM NADPH to the incubations, giving a final NADPH concentration of 1 mM, and ii) without Cofactors (NADPH), which consisted of adding 25 μL of 100 mM phosphate buffer to the incubations. Under both sets of conditions, the final concentration of microsomes were 0.5 mg/mL. […] Samples were then centrifuged at 3,220 g for 40 min and aliquots of 100 μL of the supernatant were mixed with 100 μL of ultra-pure H2O and analyzed by LC-MS/MS.
Peak areas were determined from extracted ion chromatograms. The slope value, k, was determined by linear regression of the natural logarithm of the remaining percentage of the parent drug vs incubation time curve.
A general note: Microsomes from liver hold many membrane-bound enzymes, among them those of drug oxidation.

Structures are written as SMILES.

In the case of `COc1cc(Nc2c(C#N)cnc3cc(OCCON4CCN(C)CC4)c(OC)cc23)c(F)cc1Cl` [Compound 15, 4-((4-chloro-2-fluoro-5-methoxyphenyl)amino)-6-methoxy-7-(2-((4-methylpiperazin-1-yl)oxy)ethoxy)quinoline-3-carbonitrile], the fraction unbound at 6 h, 5 µM in series [1] was found to be 0.049. In addition, in the series “Caco-2 permeability”, the Papp A→B at 2 h, 5 µM came out at 19 nm/s. Moreover, the half-life at 1 µM in series [2] stood at 4.3 min. For the same compound, the microsomal CLint at 1 µM in series [2] (read-out: LMCIint (rate of metabolism)) was 321 µL/min/mg.
